The record followed here is article PMC8398983, “Triarylborane Dyes as a Novel Non-Covalent and Non-Inhibitive Fluorimetric Markers for DPP III Enzyme” (Molecules, 2021).

Holding throughout (assay): fluorimetric titration, […] fit
Type in all cases: binding

Assay [1] concerns the target T1, hDPP III (Homo sapiens, UniProt Q9NY33, E451A).
T1 construct: gene DPP3; recombinant, C-terminal His-tag, expressed in E. coli from pET21b, Ni-NTA purified
T1 sequence (Q9NY33 2-737 E451A): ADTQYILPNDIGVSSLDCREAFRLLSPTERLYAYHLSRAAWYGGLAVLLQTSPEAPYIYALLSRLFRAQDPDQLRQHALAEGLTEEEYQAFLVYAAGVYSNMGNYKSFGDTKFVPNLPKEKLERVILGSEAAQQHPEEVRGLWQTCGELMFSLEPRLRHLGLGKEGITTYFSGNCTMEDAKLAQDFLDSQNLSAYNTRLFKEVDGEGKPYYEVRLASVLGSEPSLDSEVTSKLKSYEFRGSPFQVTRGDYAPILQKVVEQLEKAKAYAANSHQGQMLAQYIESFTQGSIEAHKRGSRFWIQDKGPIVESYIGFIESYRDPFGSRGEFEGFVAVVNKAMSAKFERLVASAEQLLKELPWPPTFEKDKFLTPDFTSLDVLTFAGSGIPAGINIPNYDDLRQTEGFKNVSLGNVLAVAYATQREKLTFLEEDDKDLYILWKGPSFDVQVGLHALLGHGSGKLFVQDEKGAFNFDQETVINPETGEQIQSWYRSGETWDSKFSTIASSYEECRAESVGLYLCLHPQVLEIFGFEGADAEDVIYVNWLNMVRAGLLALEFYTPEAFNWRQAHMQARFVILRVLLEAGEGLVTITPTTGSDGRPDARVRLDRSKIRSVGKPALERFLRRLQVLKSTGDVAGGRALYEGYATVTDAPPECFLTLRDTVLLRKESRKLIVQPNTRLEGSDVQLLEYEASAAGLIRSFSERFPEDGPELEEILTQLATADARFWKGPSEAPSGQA
As to conditions: read-out: logKs (converted).

Assay [2] deals with T2, BSA (bovine serum albumin) (Bos taurus, UniProt P02769).
T2 construct: gene ALB; commercial native protein (Sigma Aldrich), mature serum albumin
The conditions noted are these: read-out: logKs (converted).

Assay [3] has as its target T3, hDPP III (Homo sapiens, UniProt Q9NY33).
T3 construct: gene DPP3; recombinant, C-terminal His-tag, expressed in E. coli from pET21b, Ni-NTA purified
T3 sequence (Q9NY33 2-737): T1 sequence (Q9NY33 2-737 E451A) with A450E
As to conditions: TRIS-HCl buffer I = 0.02 M, pH 7.4.

Residue numbers refer to the chain shown, from its start.

T2 sequence (P02769 25-607): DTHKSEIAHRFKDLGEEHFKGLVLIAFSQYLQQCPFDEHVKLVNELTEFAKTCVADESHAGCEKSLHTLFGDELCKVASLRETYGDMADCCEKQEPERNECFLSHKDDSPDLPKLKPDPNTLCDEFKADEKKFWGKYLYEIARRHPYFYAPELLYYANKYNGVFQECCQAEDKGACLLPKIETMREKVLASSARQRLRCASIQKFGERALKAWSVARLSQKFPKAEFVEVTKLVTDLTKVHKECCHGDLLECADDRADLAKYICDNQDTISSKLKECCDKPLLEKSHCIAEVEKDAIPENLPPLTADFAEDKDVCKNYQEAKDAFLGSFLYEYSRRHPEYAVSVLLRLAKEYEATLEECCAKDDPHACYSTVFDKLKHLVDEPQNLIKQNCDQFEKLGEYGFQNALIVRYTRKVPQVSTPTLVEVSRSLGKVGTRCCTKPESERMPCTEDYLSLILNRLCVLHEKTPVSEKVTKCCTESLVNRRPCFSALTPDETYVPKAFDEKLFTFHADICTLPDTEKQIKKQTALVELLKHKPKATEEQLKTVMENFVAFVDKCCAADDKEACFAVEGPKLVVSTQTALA

As for `Cc1cc(-c2cn(C(CCCCNC(=O)CCCc3ccc4ccc5cccc6ccc3c4c56)C(=O)O)nn2)cc(C)c1B(c1c(C)cc(N(C)C)cc1C)c1c(C)cc(N(C)C)cc1C` (stereo not drawn) [compound 2, Triaryl-borane-amino acid-pyrene conjugate 2], the Kd (on hDPP III [1]; in assay [2]) was 398 nM in each case. For the same compound, the logKs entry at hDPP III [3] (λexc 342 and 403 nm) is “performed fluorimetric titrations with wild type (wt) hDPP III”.
As for `Cc1cc(-c2cn(C(CCCCN)C(=O)O)nn2)cc(C)c1B(c1c(C)cc(N(C)C)cc1C)c1c(C)cc(N(C)C)cc1C` (stereo not drawn) [compound 1, Triaryl-borane-amino acid conjugate 1], the Kd at hDPP III [1] was 251 nM; in assay [2], 501 nM. Besides, at hDPP III [3] (λexc 400 nm), the logKs result is listed as “performed fluorimetric titrations with wild type (wt) hDPP III”.
